Patent publication US20220184008A1, “MODULATORS OF INTRACELLULAR CHLORIDE CONCENTRATION” (FONDAZIONE ISTITUTO ITALIANO DI TECNOLOGIA, priority 2019, published 2022)

What was measured:
[1] = Phase I metabolism in liver microsomes; format: in vitro ADME; conditions: read-out: t½ in liver microsomes
Protocol: FIG. 3: Assessment of drug-likeness of a selected compound, compound 3.17. a) Chemicophysical properties of bumetanide and compound 3.17 by LC-MS analysis. b) Comparison between urinary volume of WT mice (C57Bl/6N) two hours after treatment with bumetanide (0.2 mg/kg) and compound 3.17 (0.2 mg/kg). c) Assessment of urinary volume of Ts65Dn mouse model of Down syndrome and WT littermates two hours after treatment with compound 3.17 (0.2 mg/kg). Number in parenthesis: number of analyzed animals. Data represents mean±sem, and they are presented as % of the respective vehicle.
The selected NKCC1 inhibitor compound 3.17 has been evaluated for solubility in aqueous buffers, and stability in plasma and phase I metabolism in vitro (FIG. 3a).

[2] = system: valproic acid (VPA)-induced mouse model of autism; assay: VPA-induced mouse model of autism (three-chamber, male-female interaction, marble burying, grooming); format: in vivo; conditions: VPA mice, 0.2 mg/kg i.p. seven days
Source text: Right panel, quantification of the social novelty index in mice treated with vehicle (WT, n=15, VPA, n=10) or 3.17 (WT, n=9, VPA, n=12); two-way ANOVA, Tukey's post hoc test, *P<0.05, **P<0.01. (b) Quantification of the interaction time in mice treated with vehicle (WT, n=15, VPA, n=10) or 3.17 (WT, n=10, VPA, n=11); two-way ANOVA, Tukey's post hoc test, **P<0.01. (c) Quantification of the number of marbles buried by mice treated with vehicle (WT, n=17, VPA, n=17) or 3.17 (WT, n=13, VPA, n=13); two-way ANOVA, Tukey's post hoc test, *P<0.05, **P<0.01. (d) Quantification of grooming time for mice treated with vehicle (WT, n=20, VPA, n=17) or 3.17 (WT, n=13, VPA, n=13); two-way ANOVA on Ranks, Tukey's post hoc test, *P<0.05, **P<0.01.
In vivo assessment of the efficacy of the selected NKCC1 inhibitor in the valproic acid (VPA)-induced mouse model of autism, to assess its ability to rescue altered social interaction. The VPA model was obtained by treating pregnant C57bl/6j dams at 12.5 days of pregnancy with 600 mg/kg (i.p.) of VPA dissolved in PBS. […] As control, the offspring of C57bl/6j dams treated at 12.5 with PBS was used. To assess the efficacy of the compound to restore social deficits, juvenile male offspring of both the VPA- and PBS-treated dams were treated (i.p injection) with 0.2 mg/kg of compound 3.17 dissolved in PBS or 2% DMSO dissolved in PBS as control for seven days. Then, mice were tested for their social ability and for repetitive behaviors in different tests. The social ability was tested in the three-chamber test (Silverman et al., 2010). In the three-chamber test, mice are singularly placed in a three-chamber box with openings between the chambers. After ten minutes of free exploration, a never-before-met intruder is placed under one pencil cup in one chamber and an empty pencil cup was placed in the other chamber. […] The social novelty index is measured as follows: [(time spent with the new intruder−time spent with the old intruder)/(time spent with the new intruder+time spent with the old intruder) %].
The sociability during male-female interaction was then assessed (Drapeau et al., 2018). In this test the tested mouse, after 5 minutes of habituation, is evaluated for its approach to a female intruder mouse that is placed for 5 minutes in the same cage. The time spent interacting is calculated as a measure of male-female social interaction. […] Finally, repetitive behaviors were evaluated in two different tests. […] The repetitive behavior is evaluated as the number of marbles buried in the litter. […] During the test, the mouse is placed in a cylindrical support and after 10 minutes of habituation, the repetitive grooming activity is measured during 5 minutes.

half-life [1]: > 1 h
SMILES: CN(C)S(=O)(=O)c1cc(C(=O)O)ccc1NCCCCCCCC(F)(F)F [Compound 3.17, 3-(dimethylsulfamoyl)-4-(8,8,8-trifluorooctylamino) benzoic acid]
male-female interaction [2]: completely restored
repetitive behaviors (marbles buried, grooming time) [2]: completely restored
sociability index ([2]; three-chamber test): completely restored
social novelty index ([2]; three-chamber test): completely restored
